Consider 23 compounds from PubChem BioAssay (NCI).

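Following 48 hours of exposure in 96-well plates, responses at five concentrations were used to interpolate endpoints linearly. GI50 is the concentration that inhibits growth by half. TGI: total growth inhibition.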

Some test systems named below: A549 NSCLC; EKVX NSCLC; OVCAR-8 ovarian; MALME-3M melanoma; BT-549 breast; U251 CNS; PC-3 prostate; COLO 205 colon; CCRF-CEM leukemia; K-562 leukemia; HS 578T breast.
Assay in all cases: NCI-60 cell line screen, 48 h

Turning to `Cc1cc2[nH]c3c(C#N)c(-c4ccccc4)c(N=Nc4cccc(C(F)(F)F)c4)c(=O)n3c2cc1C`, the TGI with A549 NSCLC, with EKVX NSCLC, with OVCAR-8 ovarian, with MALME-3M melanoma, with BT-549 breast and in the assay on U251 CNS was greater than 100 µM throughout. For the same compound, the TGI in the assay with PC-3 prostate, in the assay on COLO 205 colon and in the assay with CCRF-CEM leukemia was greater than 100 µM throughout.

Regarding `NC(=O)CCC(NCc1c2ccccc2[n+]([O-])c2ccccc12)C(=O)O` (stereo unspecified), the TGI in the assay with A549 NSCLC, with EKVX NSCLC, in the assay on OVCAR-8 ovarian, in the assay on MALME-3M melanoma, with U251 CNS and in the assay with K-562 leukemia was greater than 100 µM in each case. Also, the TGI with COLO 205 colon and in the assay with CCRF-CEM leukemia was greater than 100 µM in each case.

Regarding `c1ccc(N=C2SC(=NNc3ccccc3)SC2=Nc2ccccc2)cc1`, the TGI in the assay on A549 NSCLC, in the assay with EKVX NSCLC, with OVCAR-8 ovarian, with MALME-3M melanoma, with U251 CNS and in the assay on HS 578T breast was greater than 100 µM each time. Besides, the TGI in the assay with K-562 leukemia, with PC-3 prostate, in the assay with COLO 205 colon and in the assay with CCRF-CEM leukemia was greater than 100 µM throughout.

With `Cc1c(-c2cc3n(n2)C(c2cccs2)C(C#N)=C(c2ccccc2)N3)c(=O)n(-c2ccccc2)n1C` (stereo unspecified), the TGI in the assay with A549 NSCLC is greater than 100 µM; in the assay on EKVX NSCLC it was greater than 100 µM; in the assay on OVCAR-8 ovarian, greater than 100 µM; with MALME-3M melanoma, greater than 100 µM; in the assay on U251 CNS, greater than 90.8 µM; in the assay on K-562 leukemia, greater than 100 µM. For the same compound, the TGI with COLO 205 colon and with CCRF-CEM leukemia was greater than 100 µM in each case.

In the case of `CC(=O)[O-].CC(=O)[O-].O=C(N/N=C/c1cc(Cl)cc(Cl)c1[OH2+])c1ccncc1.[Co+2]`, the TGI in the assay on A549 NSCLC, in the assay with EKVX NSCLC, in the assay on OVCAR-8 ovarian, in the assay on MALME-3M melanoma, in the assay on K-562 leukemia and in the assay with COLO 205 colon was greater than 100 µM in each case. The compound further registered a TGI with CCRF-CEM leukemia greater than 100 µM.

Consider `CC(=O)c1ccc(Oc2ccc(/C(C)=N\N=C(N)N)cc2)cc1`, for which the TGI with A549 NSCLC stood at 14.5 µM; in the assay on EKVX NSCLC, 16.7 µM; with OVCAR-8 ovarian it was 12.7 µM; in the assay on MALME-3M melanoma it was 8.12 µM; with U251 CNS, 10 µM; in the assay with COLO 205 colon it was 3.26 µM. In addition, in the assay with CCRF-CEM leukemia, the TGI worked out at 10.4 µM.

On to `C=C1c2c(cc3c(c2O)c(=O)c2ccccc2n3C)OC1(C)C`, for which the TGI with EKVX NSCLC, in the assay with OVCAR-8 ovarian, in the assay with MALME-3M melanoma, in the assay with U251 CNS, with COLO 205 colon and in the assay with CCRF-CEM leukemia was greater than 100 µM in each case.

Consider `CC1C(c2ccc3c(c2)OCO3)c2cc3c(cc2OC1N1CCCC1)OCO3` (stereo unspecified), for which the TGI was greater than 100 µM in the assay on A549 NSCLC; greater than 100 µM in the assay on EKVX NSCLC; greater than 100 µM with OVCAR-8 ovarian; 44.5 µM in the assay with HS 578T breast; 61.4 µM with K-562 leukemia; greater than 100 µM in the assay on PC-3 prostate. Besides, the TGI with COLO 205 colon is greater than 100 µM; in the assay with CCRF-CEM leukemia it was 76.1 µM.

For the compound `O=P(O)(O)C(CSc1ccccc1)P(=O)(O)O`, the TGI in the assay with A549 NSCLC, in the assay with EKVX NSCLC, in the assay with OVCAR-8 ovarian, with MALME-3M melanoma, in the assay on U251 CNS and with K-562 leukemia was greater than 100 µM each time. For the same compound, the TGI in the assay with COLO 205 colon and in the assay on CCRF-CEM leukemia was greater than 100 µM each time.

As to `CCOP(=O)(/C=C\n1cnc2c(=O)n(C(C)=O)c(N)nc21)OCC`, the TGI in the assay on A549 NSCLC, in the assay with EKVX NSCLC, in the assay on OVCAR-8 ovarian, in the assay on BT-549 breast, with U251 CNS and in the assay on K-562 leukemia was greater than 100 µM in each case. Further, the TGI with PC-3 prostate, in the assay with COLO 205 colon and with CCRF-CEM leukemia was greater than 100 µM each time.

In the case of `NNC(=O)CNC(=O)CSc1nnc(COc2ccc(Cl)cc2)n1-c1ccccc1`, the TGI with A549 NSCLC, in the assay with EKVX NSCLC, with OVCAR-8 ovarian, in the assay on MALME-3M melanoma, with U251 CNS and with K-562 leukemia was greater than 100 µM throughout. The TGI with PC-3 prostate, in the assay on COLO 205 colon and in the assay on CCRF-CEM leukemia was greater than 100 µM in each case.

`CC(=O)O[C@H]1CC[C@]2(C)[C@H]3CC[C@@H]4[C@H]5[C@H](C(C)C)CC[C@]5(C(=O)OCC(CO)(CO)N=C(N)N)CC[C@@]4(C)[C@]3(C)CC[C@H]2C1(C)C`: the GI50 is 1.71 µM in the assay on A549 NSCLC; 1.8 µM in the assay with EKVX NSCLC; 2.32 µM in the assay with OVCAR-8 ovarian; 2.05 µM in the assay on HS 578T breast; 1.59 µM in the assay with PC-3 prostate; 1.88 µM with COLO 205 colon. The GI50 in the assay on CCRF-CEM leukemia is 2.24 µM. Also, the TGI in the assay with A549 NSCLC is 3.28 µM; in the assay on EKVX NSCLC it was 3.53 µM; in the assay with OVCAR-8 ovarian, 5.45 µM; in the assay with HS 578T breast it was 5.04 µM; with PC-3 prostate, 3.09 µM; in the assay with COLO 205 colon it was 3.55 µM. Also, the TGI in the assay on CCRF-CEM leukemia came out at 5.51 µM.

As for `O=C(/C=C/c1ccc(O)c(O)c1)OCCc1cccc2ccccc12`, the TGI in the assay with A549 NSCLC is 19.7 µM; in the assay on OVCAR-8 ovarian, 19.9 µM; in the assay on MALME-3M melanoma, 19.5 µM; with BT-549 breast, 21.2 µM; with U251 CNS, 21.7 µM; in the assay on K-562 leukemia it was 9.08 µM. In addition, the TGI in the assay on PC-3 prostate turned out to be 16.3 µM; in the assay on COLO 205 colon, 20.5 µM; in the assay on CCRF-CEM leukemia, 11.2 µM.

In the case of `N#CCC(=O)Nn1c(CC#N)nnc1Cc1ccccc1`, the TGI in the assay with A549 NSCLC, in the assay with OVCAR-8 ovarian, with MALME-3M melanoma, with BT-549 breast, with U251 CNS and in the assay with HS 578T breast was greater than 100 µM in each case. The TGI in the assay with K-562 leukemia and with PC-3 prostate was greater than 100 µM in each case.

For the compound `O=C(NO)c1coc2ccccc2c1=O`, the TGI in the assay on A549 NSCLC, in the assay on EKVX NSCLC, in the assay on OVCAR-8 ovarian, in the assay on MALME-3M melanoma, in the assay with U251 CNS and in the assay with K-562 leukemia was greater than 100 µM in each case. For the same compound, the TGI with COLO 205 colon and in the assay with CCRF-CEM leukemia was greater than 100 µM in each case.

Consider `CCP(=O)(CC)C(Cl)(Cl)C(O)C(C)(C)C` (stereo unspecified), for which the TGI in the assay with A549 NSCLC, in the assay with OVCAR-8 ovarian, with U251 CNS, in the assay with HS 578T breast, in the assay with K-562 leukemia and in the assay with PC-3 prostate was greater than 100 µM each time. For the same compound, the TGI with COLO 205 colon and in the assay with CCRF-CEM leukemia was greater than 100 µM throughout.

Regarding `COP(C)(=O)/C(Cc1ccccc1)=N\O` (stereo unspecified), the TGI with A549 NSCLC, with OVCAR-8 ovarian, with U251 CNS, in the assay on HS 578T breast, in the assay on K-562 leukemia and with PC-3 prostate was greater than 100 µM in each case. Moreover, the TGI in the assay with COLO 205 colon and in the assay on CCRF-CEM leukemia was greater than 100 µM in each case.

For `CC[N+]1(C)CCC(O)(c2ccc(Cl)cc2)C(C(=O)c2ccc(Cl)cc2)C1` (stereo unspecified), the TGI was greater than 100 µM in the assay on OVCAR-8 ovarian; 25.6 µM with MALME-3M melanoma; 56.8 µM in the assay with U251 CNS; 38.3 µM in the assay on HS 578T breast; 17.2 µM in the assay on K-562 leukemia; 33 µM with PC-3 prostate. For the same compound, the results for the TGI with COLO 205 colon and in the assay on CCRF-CEM leukemia were 23.8 µM and 19.7 µM, respectively.

Regarding `O=C1c2ccccc2CC12Cc1cc3c(cc1C2=O)CCC3` (stereo unspecified), the TGI in the assay with A549 NSCLC, with EKVX NSCLC, in the assay on OVCAR-8 ovarian, with MALME-3M melanoma, in the assay on U251 CNS and in the assay with HS 578T breast was greater than 100 µM in each case. Also, the TGI in the assay on K-562 leukemia, in the assay with PC-3 prostate and in the assay on CCRF-CEM leukemia was greater than 100 µM throughout.

Regarding `Cc1ccc(C(=O)C(C)N)cc1` (stereo unspecified), the TGI in the assay with A549 NSCLC, in the assay with EKVX NSCLC, with OVCAR-8 ovarian, with MALME-3M melanoma, in the assay with U251 CNS and in the assay on K-562 leukemia was greater than 100 µM in each case. Moreover, the TGI in the assay on COLO 205 colon and in the assay on CCRF-CEM leukemia was greater than 100 µM each time.

With `CCCNC(=S)N/N=C/c1cccc(C)n1`, the TGI in the assay with A549 NSCLC was 73.5 µM; with EKVX NSCLC it was greater than 100 µM; in the assay with OVCAR-8 ovarian it was greater than 100 µM; in the assay on MALME-3M melanoma, greater than 100 µM; in the assay with U251 CNS it was greater than 100 µM; in the assay on HS 578T breast, greater than 100 µM. The TGI in the assay on K-562 leukemia was 77.5 µM; in the assay with PC-3 prostate, greater than 100 µM; in the assay on COLO 205 colon, greater than 100 µM; with CCRF-CEM leukemia, 7.05 µM.

On to `CCC1CC2CN3CCc4c([nH]c5c(-c6c(OC)ccc7c8c([nH]c67)[C@]6(C(=O)OC)CC7CC(CC)C6N(CC8)C7)c(O)ccc45)[C@](C(=O)OC)(C2)C13` (stereo partly specified), for which the TGI with A549 NSCLC turned out to be 36.9 µM; with EKVX NSCLC, 39.7 µM; with OVCAR-8 ovarian, 49.7 µM; in the assay on BT-549 breast, 33.7 µM; with U251 CNS, 25.7 µM; in the assay with K-562 leukemia, 27 µM. Moreover, the TGI in the assay with PC-3 prostate is 30.2 µM; in the assay with COLO 205 colon it was 24.7 µM; in the assay on CCRF-CEM leukemia, greater than 100 µM.

As for `CC(C)(C)[Si](C)(C)OCCCC#CCO`, the TGI in the assay with A549 NSCLC, in the assay on EKVX NSCLC, in the assay on OVCAR-8 ovarian, in the assay with MALME-3M melanoma, in the assay on U251 CNS and with K-562 leukemia was greater than 100 µM each time. For the same compound, the TGI in the assay with COLO 205 colon and in the assay with CCRF-CEM leukemia was greater than 100 µM each time.
